The NIST ThermoML archive (doi:10.1016/j.jct.2013.03.008)
± gives the expanded uncertainty stated by the source. Blank lines part the entries; values can stand above or below the molecule they belong to.

Assay: cn = amount concentration of the nth substance listed, in mol/dm3
Settings: 313 K, Ring tensiometer

surface tension liquid-gas (c1 = 0.000412): 30.2 ± 0.5 mN/m
Structure (SMILES): CCCCCCCCCCCC(=O)OCC[N+](C)(C)CCC[N+](C)(C)CCOC(=O)CCCCCCCCCCC.[Br-].[Br-] + O

surface tension liquid-gas (c1 = 0.000228): 27.2 ± 0.4 mN/m
Structure (SMILES): CCCCCCCCCCCCOC(=O)C[N+](C)(C)CCC[N+](C)(C)CC(=O)OCCCCCCCCCCCC.[Br-].[Br-] + O

surface tension liquid-gas (c1 = 0.000168): 26.4 ± 0.4 mN/m
Structure (SMILES): CCCCCCCCCCCCOC(=O)C[N+](C)(C)CC[N+](C)(C)CC(=O)OCCCCCCCCCCCC.[Br-].[Br-] + O
